We go through one compound from publication PMC6340882, “Targeting protein kinase CK2 and CDK4/6 pathways with a multi-kinase inhibitor ON108110 suppresses pro-survival signaling and growth in mantle cell lymphoma and T-acute lymphoblastic leukemia” (Oncotarget, 2018).

Structures are written as SMILES.

Assay [1] addresses CDK4/CyclinD1 (Homo sapiens, UniProt P11802). As to the kind of experiment: Kinase panel profiling (Reaction Biology Corp). It is filed as biochemical. The settings on record: CDK4/CyclinD1, kinase inhibition profile. The procedure: (§1) Initial testing of ON108110 against a panel of 285 functional kinases was performed by Reaction Biology Corp (Malvern, PA). Recombinant CDK4/CYCLIN D1 or CK2α1 were mixed with their respective synthetic peptide substrates (10ng) and incubated with DMSO or increasing concentrations of ON108110 in 20μl kinase buffer [50mM Tris-HCl (pH 7.5), 10mM MgCl2, 1mM EGTA, 2mM DTT and 0.01% NP-40] for 30 min. at room temperature. Kinase reactions were carried out for 20 min at 30°C in the presence of 5μl of substrate-ATP mixture (1μg RB, 20μM ATP, 20μCi γ-^32P-ATP). The reactions were incubated at 30°C for 20 minutes, terminated by addition of 0.5M O-phosphoric acid and 10μl of the reaction mixture was spotted on P-30 Filtermat membranes (Wallac #1450-523). The filtermat was air-dried, blocked with methanol for 2 minutes followed by three washes with 75mM phosphoric acid. The filtermat was then air-dried and analyzed using a phosphoimager. Densitometric values were plotted as a function of log drug concentration using Prism 4 GraphPad software and the IC50 values determined by plotting sigmoidal non-linear regression curves with variable slope (n=3).

For assay [2], the target named is CDK4/CyclinD3 (Homo sapiens, UniProt P11802). As to the kind of experiment: Kinase panel profiling (Reaction Biology Corp). The settings on record: CDK4/CyclinD3, kinase inhibition profile. The assay is classed as biochemical. The method, then: as §1
For assay [3], the target named is CDK5/P25 (Homo sapiens, UniProt Q00535). As to the kind of experiment: Kinase panel profiling (Reaction Biology Corp). The settings on record: CDK5/P25, kinase inhibition profile. The assay is classed as biochemical. The method, then:
as §1

The target of assay [4] is CDK6/CyclinD1 (Homo sapiens, UniProt Q00534). The experiment in a line: Kinase panel profiling (Reaction Biology Corp). The settings on record: CDK6/CyclinD1, kinase inhibition profile. The assay is classed as biochemical. The method, then:
as §1

Assay [5] concerns the target CDK6/CyclinD3 (Homo sapiens, UniProt Q00534). The experiment in a line: Kinase panel profiling (Reaction Biology Corp). The assay is classed as biochemical. The settings on record: CDK6/CyclinD3, kinase inhibition profile. The method, then:
as §1

The target of assay [6] is CK2α1 (Homo sapiens, UniProt P68400). The experiment in a line: Kinase panel profiling (Reaction Biology Corp). It is filed as biochemical. The settings on record: CK2α1, kinase inhibition profile. The procedure: as §1
Assay [7] addresses CK2α2 (Homo sapiens, UniProt P19784). The experiment in a line: Kinase panel profiling (Reaction Biology Corp). It is filed as biochemical. The settings on record: CK2α2, kinase inhibition profile. The procedure:
as §1

Assay [8] addresses PIM3 (Homo sapiens, UniProt Q86V86). The experiment in a line: Kinase panel profiling (Reaction Biology Corp). It is filed as biochemical. The settings on record: PIM3, kinase inhibition profile. The procedure: as §1
Assay [9] has as its target T1, recombinant CK2α1 kinase domain (Homo sapiens, UniProt P68400).
T1 construct: Amino acid residues 3-335 of CK2α1 were cloned using BamH1 and HindIII into pET28bsmt3-SUMO fusion vector; His6 (N, cleaved yes); SUMO (N, cleaved yes); made in house; host or cells: Escherichia coli BL21-DE3 (RIL)
As to the kind of experiment: Differential scanning fluorimetry (DSF). The assay is classed as binding. The settings on record: apo protein Tm 58°C. The procedure:
1μM of in-house purified recombinant CK2α1 was diluted in protein buffer and added to a final concentration of 1X of Sypro Orange Dye in the presence of DMSO or increasing concentrations of ON108110. Following a 20 min incubation at room temperature, 20μl samples were pipetted into a clear MicroAmp Fast 96-well Reaction PCR plates and sealed with MicroAmp Optical Adhesive Film. The assay was performed using a StepOne Plus RT-PCR instrument (Applied Biosystems) using an increasing temperature gradient of 20 to 90°C in 0.2°C increments using a 200- millisecond stabilization delay. Florescence readings were acquired with excitation and emission wavelengths of 580±10 nm and 624±14 nm respectively. A customized analysis program (Step One Plus Protein Thermal Shift Software) was used to calculate the Tm from each fluorescence profile (Boltzmann method) and the Tm of the fluorescence (derivative method). Derivative Tm values were obtained from the top of the peak in the derivative plot, while the Boltzmann Tm values calculated from the inflection point of the fluorescence plot.
For orientation: Differential scanning fluorimetry follows unfolding on heating by fluorescence.

The test system of assay [10] is CEM, HBL-2, RS4-11 and Granta-519 cells. The experiment in a line: Apoptosis, Annexin V/DAPI staining. It is filed as cell-based, human. The settings on record: 0.5-2.0 μM, 24 hours post-treatment. The method, then:
Figure 5 Modulation of cell cycle expression and induction of apoptosis in ON 108110-treated MCL and T-ALL cell lines (A) CEM and Granta-519 cells were treated with either DMSO or increasing concentrations of ON108110 (0.5-2.0μM) for 24 hours. Cell cycle analysis was performed using propidium iodide staining. (B) CEM, HBL-2, RS4-11 and Granta-519 cells were treated with either DMSO (vehicle) or increasing concentrations of ON108110 (0.5-2.0 μM) for 24 hours and stained with Annexin V/DAPI (C) Graphical representation of apoptosis induced as shown in B. (D) Granta-519 cells were treated with increasing concentrations of ON108110 for 24 hours. Caspase activation and viability were measured using the Caspase Glo 3/7 and Cell Titer Blue assay kits, respectively. […]
To determine cell cycle distribution, 70% ethanol fixed cells were washed with phosphate buffered saline (PBS), resuspended in PBS and incubated with RNase and propidium iodide at 37°C for 20 min. DNA content was analyzed on a FACS Calibur (BD Immunocytometry Systems) and the data analyzed using Flowjo software (Treestar). Annexin V staining was measured using the FITC Annexin V Apoptosis Detection Kit I (BD Biosciences) according to the instructions of the manufacturer except that DAPI was substituted at a concentration of […] to measure DNA content.

T1 sequence (P68400 3-335): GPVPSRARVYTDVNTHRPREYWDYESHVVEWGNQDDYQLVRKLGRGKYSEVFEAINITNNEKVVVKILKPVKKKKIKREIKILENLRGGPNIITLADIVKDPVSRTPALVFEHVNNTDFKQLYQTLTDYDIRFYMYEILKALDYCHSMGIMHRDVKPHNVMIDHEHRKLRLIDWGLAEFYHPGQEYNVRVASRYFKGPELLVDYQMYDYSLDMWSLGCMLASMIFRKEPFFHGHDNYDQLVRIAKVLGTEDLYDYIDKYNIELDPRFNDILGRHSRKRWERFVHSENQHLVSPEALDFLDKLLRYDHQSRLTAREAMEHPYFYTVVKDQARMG
Chain of CDK5/P25 (Q00535 whole entry): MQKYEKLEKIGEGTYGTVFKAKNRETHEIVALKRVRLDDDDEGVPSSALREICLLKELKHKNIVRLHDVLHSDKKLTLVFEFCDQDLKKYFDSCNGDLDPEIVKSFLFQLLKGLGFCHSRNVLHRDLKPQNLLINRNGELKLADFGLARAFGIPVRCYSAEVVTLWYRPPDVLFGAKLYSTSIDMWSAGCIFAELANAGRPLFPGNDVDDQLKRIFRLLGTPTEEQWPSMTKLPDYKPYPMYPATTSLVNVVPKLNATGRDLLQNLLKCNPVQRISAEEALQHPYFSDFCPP
Chain of CDK5/P25 (Q15078 99-307 partner limits assumed): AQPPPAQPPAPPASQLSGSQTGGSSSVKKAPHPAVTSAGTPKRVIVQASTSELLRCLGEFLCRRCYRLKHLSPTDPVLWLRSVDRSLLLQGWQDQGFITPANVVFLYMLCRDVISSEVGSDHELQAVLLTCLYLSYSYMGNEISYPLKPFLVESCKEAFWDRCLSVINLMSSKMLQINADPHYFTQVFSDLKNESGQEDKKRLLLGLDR
Chain of CK2α1 (P68400 whole entry): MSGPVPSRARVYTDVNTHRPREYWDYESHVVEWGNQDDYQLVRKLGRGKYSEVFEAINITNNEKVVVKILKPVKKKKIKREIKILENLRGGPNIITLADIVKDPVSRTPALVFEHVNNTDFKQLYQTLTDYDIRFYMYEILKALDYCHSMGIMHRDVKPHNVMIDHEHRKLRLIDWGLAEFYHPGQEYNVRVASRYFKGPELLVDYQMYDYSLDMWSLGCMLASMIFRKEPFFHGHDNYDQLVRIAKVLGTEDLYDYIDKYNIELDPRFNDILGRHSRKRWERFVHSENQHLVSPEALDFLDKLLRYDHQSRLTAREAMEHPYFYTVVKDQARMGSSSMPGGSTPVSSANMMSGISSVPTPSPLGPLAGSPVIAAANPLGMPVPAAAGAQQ
Chain of CK2α2 (P19784 whole entry): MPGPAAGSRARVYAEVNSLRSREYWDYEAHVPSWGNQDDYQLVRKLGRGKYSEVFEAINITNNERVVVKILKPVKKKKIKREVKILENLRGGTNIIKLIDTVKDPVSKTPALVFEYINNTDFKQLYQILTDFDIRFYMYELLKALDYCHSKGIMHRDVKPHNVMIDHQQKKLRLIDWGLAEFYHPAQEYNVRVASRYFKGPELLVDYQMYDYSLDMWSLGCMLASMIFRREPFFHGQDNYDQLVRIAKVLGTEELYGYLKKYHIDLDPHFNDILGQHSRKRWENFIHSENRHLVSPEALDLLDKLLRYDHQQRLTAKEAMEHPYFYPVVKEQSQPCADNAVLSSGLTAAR
Chain of CDK6/CyclinD1 (Q00534 whole entry): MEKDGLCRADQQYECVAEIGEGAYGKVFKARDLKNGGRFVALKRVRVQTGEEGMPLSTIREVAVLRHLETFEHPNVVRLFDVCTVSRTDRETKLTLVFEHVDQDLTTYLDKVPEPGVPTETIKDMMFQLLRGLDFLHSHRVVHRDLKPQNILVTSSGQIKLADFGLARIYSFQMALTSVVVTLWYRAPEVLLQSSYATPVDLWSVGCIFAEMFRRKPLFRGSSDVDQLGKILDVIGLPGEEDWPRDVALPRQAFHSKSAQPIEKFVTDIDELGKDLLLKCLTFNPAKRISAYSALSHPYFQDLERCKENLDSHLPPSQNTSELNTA
Chain of CDK6/CyclinD1 (P24385 whole entry partner): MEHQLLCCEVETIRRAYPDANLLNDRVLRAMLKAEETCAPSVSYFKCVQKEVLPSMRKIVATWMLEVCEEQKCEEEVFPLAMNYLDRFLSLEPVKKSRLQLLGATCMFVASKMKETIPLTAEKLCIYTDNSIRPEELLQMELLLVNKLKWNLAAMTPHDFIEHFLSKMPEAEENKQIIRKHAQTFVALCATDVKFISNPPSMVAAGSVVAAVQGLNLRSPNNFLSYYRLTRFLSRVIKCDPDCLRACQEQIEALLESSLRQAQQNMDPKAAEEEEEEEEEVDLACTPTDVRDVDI
Chain of CDK6/CyclinD3 (Q00534 whole entry): as the sequence (Q00534 whole entry) above
Chain of CDK6/CyclinD3 (P30281 whole entry partner): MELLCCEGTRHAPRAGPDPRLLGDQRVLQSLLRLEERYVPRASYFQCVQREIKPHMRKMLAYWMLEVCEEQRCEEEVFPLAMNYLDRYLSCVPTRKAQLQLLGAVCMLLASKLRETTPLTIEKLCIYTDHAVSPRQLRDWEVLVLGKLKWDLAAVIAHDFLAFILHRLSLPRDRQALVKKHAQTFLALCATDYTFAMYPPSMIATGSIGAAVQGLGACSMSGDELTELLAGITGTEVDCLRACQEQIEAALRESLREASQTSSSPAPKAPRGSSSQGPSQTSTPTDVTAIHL
Chain of CDK4/CyclinD1 (P11802 whole entry): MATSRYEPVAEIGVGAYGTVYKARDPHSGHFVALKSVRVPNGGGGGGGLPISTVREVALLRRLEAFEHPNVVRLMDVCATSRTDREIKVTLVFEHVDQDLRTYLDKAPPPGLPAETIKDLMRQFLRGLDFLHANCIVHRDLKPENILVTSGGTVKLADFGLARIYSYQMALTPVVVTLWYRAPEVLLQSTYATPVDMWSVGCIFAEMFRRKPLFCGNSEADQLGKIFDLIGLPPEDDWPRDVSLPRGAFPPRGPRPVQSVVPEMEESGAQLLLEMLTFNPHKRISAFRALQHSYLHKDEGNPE
Chain of CDK4/CyclinD1 (P24385 whole entry partner): as the sequence (P24385 whole entry partner) above
Chain of CDK4/CyclinD3 (P11802 whole entry): as the sequence (P11802 whole entry) above
Chain of CDK4/CyclinD3 (P30281 whole entry partner): as the sequence (P30281 whole entry partner) above

As to `CC(=O)Oc1ccc(/C=C2\Sc3ccc(F)cc3NC2=O)cc1[N+](=O)[O-]` [ON108110], the 50% inhibitory concentration (IC50) in assay [1] was 11 nM; in [2], 15 nM; in [3], 7 nM; in [4], 2 nM; in assay [5], 24 nM; in assay [6] it was 3 nM. The IC50 in assay [7] and in [8] was 2 nM each time. In [9], the “melting temperature (Tm) of CK2α1 with compound” value came to 64.8 °C. Also, the “shift in the Tm of CK2α1” value in assay [9] worked out at 6.8 °C. The “frequency of apoptotic cells (Annexin V)” value in assay [10] is “concentration-dependent increase in the frequency of apoptotic cells”.

For orientation: IC50 means the midpoint of a concentration-inhibition curve. Lower therefore signals inhibition by little substance.
